Source: patent publication US20190175691A1, “METHODS FOR DETECTING AND MODULATING THE EMBRYONIC-FETAL TRANSITION IN MAMMALIAN SPECIES” (BioTime, Inc., priority 2016, published 2019)
Starred links: 1 amine or outer side, 2 acyl side, 3 side chain; linkers in the order of their positions; H or OH if unused. Positions of bridges follow the written chain, without caps; N, C: chain ends. Non-standard residues stand in square brackets, D forms with d. Residues, ends and D or L forms follow the SMILES beside them. Chains are numbered I, II in the order given. Actinocin(9to1) = Cc1c2oc3c(C)ccc(C(=O)[*:1])c3nc-2c(C(=O)[*:2])c(N)c1=O; NMeV = CN[C@H](C(=O)O)C(C)C; Sar = CNCC(=O)O

Tests used:
Assay type in all cases: cell-based
COX7A1 transcript [1] = assay: Screen for iCM factors: increase of COX7A1 transcript in cancer cell lines; details: Lung (A549), breast (MCF7), and prostate (PC3) cancer cell lines
Description: Lung (A549), breast (MCF7), and prostate (PC3) cancer cell lines were exposed to diverse factors including biologically active small molecules as well as RNAi directed to specific genes and the relative increase in levels of COX7A1 transcript was used as a marker of iCM.

COX7A1 transcript [2] = assay: Screen for iTR factors: reduction of COX7A1 transcript in cancer cell lines; details: Lung (A549), breast (MCF7), and prostate (PC3) cancer cell lines
Description: Values under cell lines represent proportional decreased values for COX7A1 transcript in the cell line.
Lung (A549), breast (MCF7), and prostate (PC3) cancer cell lines were exposed to diverse factors including biologically active small molecules as well as RNAi directed to specific genes and the relative reduction of levels of COX7A1 transcript was used as a marker of iTR.

[3] = tested on: adult-derived MDW fibroblasts; assay: Scratch test on confluent MDW fibroblast monolayer; details: MDW passage 5, 1.5 mm scratch, 24 hours; 0.5 mM valproic acid, 10 ng/mL AMH, 20 ng/mL GFER; control 20%
Protocol: The identification of the secreted protein iTR factors GFER and AMH as well as the agent valproic acid, provides a novel cocktail of factors to generate iTR in vitro as well as in vivo. To determine the effects of the factors, cultured adult-derived MDW fibroblasts as well as umbilical cord-derived MSCs (MSCwj) were treated with varying concentrations of the factors and the rate of growth and regrowth following a scratch test are performed.
(§1) The fibroblast line MDW (passage 5) is seeded in multiple wells of a 6 well plate and cultured to confluence. A 1.5 mm “scratch” was introduced onto the monolayer using a 200 ul pipette tip, thereby denuding the fibroblasts from the culture surface. Factors including 0.5 mM valproic acid, 10 ng/mL AMH, and 20 ng/mL GFER are added to the growth medium which as DMEM medium supplemented with 10% FBS. 24 hours later, the % of the denuded surface was determined by phase contrast microscopy. […] Due to the lability and diffusion of the factors when administered in vivo, the formulation of the factors alone or in combination in a hydrogel such as crosslinked hyaluronic acid or crosslinked hyaluronic acid and collagen provides a preferred method of delivering the factors to increase tissue regeneration in animals. Alternatively, umbilical cord-derived MSCs (MSCwj) and adult skin fibroblasts (MDW) each of which express fetal/adult markers such as COX7A1 are treated with the secreted form of GFER alone at concentrations of 0, 10.0 and 100 ng/mL in DMEM medium supplemented with 10% FBS an AMH

[4] = tested on: MDW adult-derived skin fibroblasts; assay: Illumina bead array expression of COX7A1 and COL1A1 in MDW fibroblasts; details: MDW passage 6-7, 6 days, mRNA for cMYC or SOX2 + 0.5 mM valproic acid
[5] = tested on: umbilical cord-derived MSCs (MSCwj) and adult skin fibroblasts (MDW); assay: Percent confluency after 80 hours with secreted GFER; details: secreted GFER 0, 10.0 and 100 ng/mL, DMEM 10% FBS
Protocol: as §1
d cultured for 80 hours and the % confluency is determined.

| Molecule | COX7A1 expression (relative increase of COX7A1 transcript as marker of iCM) (COX7A1 transcript [1]) | other results |
| --- | --- | --- |
| CC[C@@H]1C(=O)N(C)c2cnc(Nc3ccc(C(=O)NC4CCN(C)CC4)cc3OC)nc2N1C1CCCC1 [BI 2536] | increased COX7A1 expression | – |
| CCn1cc(-c2ccnc3[nH]c(-c4cccc(CN(C)C)c4)cc23)c(-c2ccc(NC(=O)N(C)C)cc2)n1 [GSK1070916] | – | COX7A1 expression (relative reduction of COX7A1 transcript as marker of iTR) (COX7A1 transcript [2]): reduce COX7A1 expression |
| O=C(O)[C@]1(Cc2cccc(Nc3nccs3)n2)CC[C@@H](Oc2cccc(Cl)c2F)CC1 [MK-5108] | – | COX7A1 expression (relative reduction of COX7A1 transcript as marker of iTR) (COX7A1 transcript [2]): reduce COX7A1 expression |
| CCc1c2c(nc3ccc(O)cc13)-c1cc3c(c(=O)n1C2)COC(=O)[C@]3(O)CC [SN-38] | increased COX7A1 expression | – |
| CO[C@H]1/C=C\C=C(/C)C(=O)NC2=CC(=O)C(NCCN(C)C)=C(C[C@@H](C)C[C@H](OC)[C@H](O)[C@@H](C)/C=C(\C)[C@@H]1OC(N)=O)C2=O [alvespimycin] | – | COX7A1 expression (relative reduction of COX7A1 transcript as marker of iTR) (COX7A1 transcript [2]): reduce COX7A1 expression |
| CN1CC[C@H](c2c(O)cc(O)c3c(=O)cc(-c4ccccc4Cl)oc23)[C@H](O)C1 [alvocidib] | increased COX7A1 expression | – |
| CC1(C)[C@@H](OC(=O)CCC(=O)O)CC[C@]2(C)[C@H]3C(=O)C=C4[C@@H]5C[C@@](C)(C(=O)O)CC[C@]5(C)CC[C@@]4(C)[C@]3(C)CC[C@@H]12 [carbenoxolone] | increased COX7A1 expression | – |
| COc1cc(/C=C/C(=O)CC(=O)/C=C/c2ccc(O)c(OC)c2)ccc1O [curcumin] | – | COX7A1 expression (relative reduction of COX7A1 transcript as marker of iTR) (COX7A1 transcript [2]): reduce COX7A1 expression |
| Cc1c2oc3c(C)ccc(C(=O)N[C@@H]4C(=O)N[C@H](C(C)C)C(=O)N5CCC[C@H]5C(=O)N(C)CC(=O)N(C)[C@@H](C(C)C)C(=O)O[C@@H]4C)c3nc-2c(C(=O)N[C@@H]2C(=O)N[C@H](C(C)C)C(=O)N3CCC[C@H]3C(=O)N(C)CC(=O)N(C)[C@@H](C(C)C)C(=O)O[C@@H]2C)c(N)c1=O [dactinomycin] (I: T[dV]P[Sar][NMeV] / II: T[dV]P[Sar][NMeV]; ester I:1-I:C, II:1-II:C; linker I:N-II:N via Actinocin(9to1)) | increased COX7A1 expression | – |
| COc1cccc2c1C(=O)c1c(O)c3c(c(O)c1C2=O)C[C@@](O)(C(C)=O)C[C@@H]3O[C@H]1C[C@H](N)[C@H](O)[C@H](C)O1 [daunorubicin] | increased COX7A1 expression | – |
| COc1cccc2c1C(=O)c1c(O)c3c(c(O)c1C2=O)C[C@@](O)(C(=O)CO)C[C@@H]3O[C@H]1C[C@H](N)[C@H](O)[C@H](C)O1 [doxorubicin] | increased COX7A1 expression | – |
| Cc1onc(-c2c(F)cccc2Cl)c1C(=O)N[C@@H]1C(=O)N2[C@@H]1SC(C)(C)[C@@H]2C(=O)O [flucloxacillin] | increased COX7A1 expression | – |
| COc1cc2ncnc(Nc3ccc(F)c(Cl)c3)c2cc1OCCCN1CCOCC1 [gefitinib] | increased COX7A1 expression | – |
| CCN(CC)Cc1ccc2cc(COC(=O)Nc3ccc(C(=O)NO)cc3)ccc2c1 [givinostat] | increased COX7A1 expression | – |
| O=C1c2c(O)ccc(O)c2C(=O)c2c(NCCNCCO)ccc(NCCNCCO)c21 [mitoxantrone] | increased COX7A1 expression | – |
| C[C@@H]1C[C@H]2O[C@@H]2/C=C\C=C\C(=O)Cc2c(Cl)c(O)cc(O)c2C(=O)O1 [radicocol] | – | COX7A1 expression (relative reduction of COX7A1 transcript as marker of iTR) (COX7A1 transcript [2]): reduce COX7A1 expression |
| CN[C@@H]1C[C@H]2O[C@@](C)([C@@H]1OC)n1c3ccccc3c3c4c(c5c6ccccc6n2c5c31)C(=O)NC4 [staurosporine] | increased COX7A1 expression | – |
| COc1cc([S+](C)[O-])ccc1-c1nc2ncccc2[nH]1 (stereo not shown) [sulmazole] | increased COX7A1 expression | – |
| COc1cc([C@@H]2c3cc4c(cc3[C@@H](O[C@@H]3O[C@@H]5CO[C@@H](c6cccs6)O[C@H]5[C@H](O)[C@H]3O)[C@H]3COC(=O)[C@H]23)OCO4)cc(OC)c1O [teniposide] | increased COX7A1 expression | – |
| CC(/C=C/C(=O)NO)=C\[C@@H](C)C(=O)c1ccc(N(C)C)cc1 [trichostatin-A] | increased COX7A1 expression | – |
| CC(C)[C@]12O[C@H]1[C@@H]1O[C@]13[C@]1(O[C@H]1C[C@H]1C4=C(CC[C@@]13C)C(=O)OC4)[C@@H]2O [triptolide] | increased COX7A1 expression | – |
| CCCC(CCC)C(=O)O [valproic acid] | – | regeneration (coverage of the denuded wounded zone) [3]: 25%; expression of COX7A1 [4]: reduced expression of COX7A1; expression of the fibrosis marker COL1A1 [4]: decreased expression of the fibrosis marker COL1A1 |
| GFER: GFER (Augmenter of Liver Regeneration (ALR)), secreted protein iTR factor | – | regeneration (coverage of the denuded wounded zone) [3]: 28%; confluency achieved [5]: dose-dependent increase in confluency |
| calyculin | increased COX7A1 expression | – |
| AMH: anti-Mullerian hormone (AMH), secreted protein iTR factor (protein, UniProt P03971 452-560, looked up) Muellerian-inhibiting factor: SAGATAADGPCALRELSVDLRAERSVLIPETYQANNCQGVCGWPQSDRNPRYGNHVVLLLKMQVRGAALARPPCCVPTAYAGKLLISLSEERISAHHVPNMVATECGCR | – | regeneration (coverage of the denuded wounded zone) [3]: 68% |
